Measurements reported in paper PMC6785188 (ACS chemical neuroscience, 2019).

Tests used:
5-HT2B = 5-HT2B (Homo sapiens, UniProt P41595); assay: Radioligand binding affinity assay, 5-HT2B
MOR = MOR (Homo sapiens, UniProt P35372); assay: Radioligand binding affinity assay, MOR
5-HT3 = target: T1, 5-HT3 (Homo sapiens, UniProt P46098); assay: Radioligand binding affinity assay, 5-HT3
T1 sequence (P46098 24-478): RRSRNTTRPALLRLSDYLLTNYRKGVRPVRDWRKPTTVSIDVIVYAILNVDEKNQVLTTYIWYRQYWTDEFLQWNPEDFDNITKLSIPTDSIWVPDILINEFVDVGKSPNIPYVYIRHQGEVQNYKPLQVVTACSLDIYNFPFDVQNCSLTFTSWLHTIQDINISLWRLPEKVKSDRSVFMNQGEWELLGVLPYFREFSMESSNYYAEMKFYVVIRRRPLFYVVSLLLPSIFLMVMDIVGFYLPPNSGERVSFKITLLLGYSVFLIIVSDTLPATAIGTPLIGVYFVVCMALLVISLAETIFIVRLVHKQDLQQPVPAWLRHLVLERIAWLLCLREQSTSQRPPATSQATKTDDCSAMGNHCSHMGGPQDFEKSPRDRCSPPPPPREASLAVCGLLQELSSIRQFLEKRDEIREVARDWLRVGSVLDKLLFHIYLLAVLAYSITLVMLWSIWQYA

Alpha2A = target: T2, Alpha2A (Homo sapiens, UniProt P08913); assay: Radioligand binding affinity assay, Alpha2A
T2 sequence (P08913 1-465): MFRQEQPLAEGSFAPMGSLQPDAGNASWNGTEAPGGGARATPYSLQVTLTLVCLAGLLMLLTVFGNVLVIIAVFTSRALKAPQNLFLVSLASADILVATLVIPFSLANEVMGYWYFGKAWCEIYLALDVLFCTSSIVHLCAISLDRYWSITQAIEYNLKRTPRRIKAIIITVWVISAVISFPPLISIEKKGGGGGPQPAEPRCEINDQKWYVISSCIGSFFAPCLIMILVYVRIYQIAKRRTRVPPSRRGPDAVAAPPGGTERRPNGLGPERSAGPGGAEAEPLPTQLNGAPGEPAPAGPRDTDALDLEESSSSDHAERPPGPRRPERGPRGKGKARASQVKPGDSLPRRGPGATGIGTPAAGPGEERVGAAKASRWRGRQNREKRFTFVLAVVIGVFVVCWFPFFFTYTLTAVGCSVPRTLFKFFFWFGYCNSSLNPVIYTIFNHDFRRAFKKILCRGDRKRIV

5-HT1E = 5-HT1E (Homo sapiens, UniProt P28566); assay: Radioligand binding affinity assay, 5-HT1E
Alpha1B = target: T3, Alpha1B (Homo sapiens, UniProt P35368); assay: Radioligand binding affinity assay, Alpha1B
T3 sequence (P35368 1-520): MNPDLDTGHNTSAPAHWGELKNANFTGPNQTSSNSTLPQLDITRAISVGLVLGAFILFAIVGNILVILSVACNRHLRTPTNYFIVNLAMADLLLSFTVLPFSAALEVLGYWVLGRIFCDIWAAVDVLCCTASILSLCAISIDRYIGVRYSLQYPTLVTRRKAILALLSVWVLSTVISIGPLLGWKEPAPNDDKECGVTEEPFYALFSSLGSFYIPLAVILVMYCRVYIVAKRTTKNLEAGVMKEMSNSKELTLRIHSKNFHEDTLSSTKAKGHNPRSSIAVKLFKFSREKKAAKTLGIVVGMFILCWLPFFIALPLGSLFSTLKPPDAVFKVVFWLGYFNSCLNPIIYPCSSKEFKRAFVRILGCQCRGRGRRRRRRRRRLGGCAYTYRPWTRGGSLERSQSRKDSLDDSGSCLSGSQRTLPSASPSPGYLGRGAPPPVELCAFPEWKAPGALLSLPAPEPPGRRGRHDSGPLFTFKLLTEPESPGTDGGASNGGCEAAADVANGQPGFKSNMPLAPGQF

D3 = D3 (Homo sapiens, UniProt P35462); assay: Radioligand binding affinity assay, D3
5-HT6 = 5-HT6 (Homo sapiens, UniProt P50406); assay: Radioligand binding affinity assay, 5-HT6
H1 = H1 (Homo sapiens, UniProt P35367); assay: Radioligand binding affinity assay, H1
M2 = target: T4, M2 (Homo sapiens, UniProt P08172); assay: Radioligand binding affinity assay, M2
T4 sequence (P08172 1-466): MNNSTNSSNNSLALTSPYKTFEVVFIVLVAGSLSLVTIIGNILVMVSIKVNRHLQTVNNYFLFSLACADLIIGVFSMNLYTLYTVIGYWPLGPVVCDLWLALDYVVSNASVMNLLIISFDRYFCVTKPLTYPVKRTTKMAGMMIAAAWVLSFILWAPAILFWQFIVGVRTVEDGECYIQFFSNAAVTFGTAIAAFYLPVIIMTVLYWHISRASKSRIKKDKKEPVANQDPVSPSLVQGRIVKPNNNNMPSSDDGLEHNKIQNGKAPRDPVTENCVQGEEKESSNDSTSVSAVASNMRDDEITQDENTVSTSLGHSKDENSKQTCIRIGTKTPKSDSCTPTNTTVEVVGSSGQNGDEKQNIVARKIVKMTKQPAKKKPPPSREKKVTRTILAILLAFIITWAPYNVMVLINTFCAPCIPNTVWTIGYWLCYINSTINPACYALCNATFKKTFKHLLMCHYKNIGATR

M3 = M3 (Homo sapiens, UniProt P20309); assay: Radioligand binding affinity assay, M3
[1] = Mouse pharmacokinetic study; type: in vivo; settings: mice, 50 mg/kg i.p.
D1R [2] = assay: Bias calculation; type: cell-based, human; settings: relative to dopamine; ΔΔlog(τ/KA), GS-cAMP vs β-arrestin2
6-OHDA-lesioned mice = assay: Motor activity study in 6-OHDA-lesioned mice; type: in vivo; settings: 5 mg/kg i.p., 90 min
D1R [3] = settings: Tango assay, ref 73 (Wang et al.), cited from earlier work

Sequence of D3 (P35462 whole entry): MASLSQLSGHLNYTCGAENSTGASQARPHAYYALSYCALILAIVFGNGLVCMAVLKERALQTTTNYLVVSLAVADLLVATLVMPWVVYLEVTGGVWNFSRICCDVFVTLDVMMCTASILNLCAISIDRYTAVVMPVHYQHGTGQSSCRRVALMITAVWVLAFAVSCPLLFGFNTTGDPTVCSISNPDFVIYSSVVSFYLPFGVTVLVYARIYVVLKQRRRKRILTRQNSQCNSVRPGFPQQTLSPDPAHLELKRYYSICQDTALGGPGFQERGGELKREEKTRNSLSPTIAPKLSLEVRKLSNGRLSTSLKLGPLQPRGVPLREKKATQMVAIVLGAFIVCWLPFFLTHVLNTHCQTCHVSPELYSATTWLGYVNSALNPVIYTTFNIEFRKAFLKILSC
Sequence of M3 (P20309 whole entry): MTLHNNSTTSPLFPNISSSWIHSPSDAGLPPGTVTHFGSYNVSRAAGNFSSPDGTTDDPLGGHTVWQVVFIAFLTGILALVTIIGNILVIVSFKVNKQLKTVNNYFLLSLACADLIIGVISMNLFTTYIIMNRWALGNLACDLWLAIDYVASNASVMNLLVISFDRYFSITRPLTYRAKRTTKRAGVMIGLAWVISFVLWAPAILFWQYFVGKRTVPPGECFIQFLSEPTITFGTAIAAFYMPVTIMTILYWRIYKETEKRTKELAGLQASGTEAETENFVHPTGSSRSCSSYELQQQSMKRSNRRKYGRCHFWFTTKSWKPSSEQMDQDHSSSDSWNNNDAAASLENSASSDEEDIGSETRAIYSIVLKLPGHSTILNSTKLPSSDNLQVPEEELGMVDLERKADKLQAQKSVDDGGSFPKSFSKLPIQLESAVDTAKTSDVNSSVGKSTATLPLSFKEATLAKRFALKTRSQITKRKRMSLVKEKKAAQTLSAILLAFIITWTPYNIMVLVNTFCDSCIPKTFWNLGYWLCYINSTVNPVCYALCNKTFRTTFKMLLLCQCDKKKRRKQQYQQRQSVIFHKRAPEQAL
Sequence of 5-HT2B (P41595 whole entry, species assumed): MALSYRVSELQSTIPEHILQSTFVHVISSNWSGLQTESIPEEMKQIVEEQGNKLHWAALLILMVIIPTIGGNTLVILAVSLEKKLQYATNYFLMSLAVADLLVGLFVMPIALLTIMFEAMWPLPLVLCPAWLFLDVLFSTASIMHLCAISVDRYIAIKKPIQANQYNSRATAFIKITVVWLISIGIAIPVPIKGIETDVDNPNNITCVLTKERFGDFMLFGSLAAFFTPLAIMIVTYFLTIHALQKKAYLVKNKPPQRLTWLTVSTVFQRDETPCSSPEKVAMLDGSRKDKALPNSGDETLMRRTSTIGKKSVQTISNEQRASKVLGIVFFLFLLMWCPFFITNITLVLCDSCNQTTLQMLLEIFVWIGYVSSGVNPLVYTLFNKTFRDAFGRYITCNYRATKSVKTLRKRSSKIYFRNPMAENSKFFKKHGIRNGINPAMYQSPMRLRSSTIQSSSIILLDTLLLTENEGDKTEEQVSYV
Sequence of MOR (P35372 whole entry): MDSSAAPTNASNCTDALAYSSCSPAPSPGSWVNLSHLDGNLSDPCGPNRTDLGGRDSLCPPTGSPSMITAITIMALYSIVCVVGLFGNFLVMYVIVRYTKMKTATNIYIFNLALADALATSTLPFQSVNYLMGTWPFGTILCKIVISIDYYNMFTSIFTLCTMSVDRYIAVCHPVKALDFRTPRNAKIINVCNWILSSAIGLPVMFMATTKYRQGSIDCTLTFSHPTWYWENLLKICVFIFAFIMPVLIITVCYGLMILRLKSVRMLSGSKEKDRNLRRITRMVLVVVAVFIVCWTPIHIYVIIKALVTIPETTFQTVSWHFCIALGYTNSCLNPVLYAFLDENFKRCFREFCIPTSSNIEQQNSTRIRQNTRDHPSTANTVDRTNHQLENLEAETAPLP
Sequence of H1 (P35367 whole entry): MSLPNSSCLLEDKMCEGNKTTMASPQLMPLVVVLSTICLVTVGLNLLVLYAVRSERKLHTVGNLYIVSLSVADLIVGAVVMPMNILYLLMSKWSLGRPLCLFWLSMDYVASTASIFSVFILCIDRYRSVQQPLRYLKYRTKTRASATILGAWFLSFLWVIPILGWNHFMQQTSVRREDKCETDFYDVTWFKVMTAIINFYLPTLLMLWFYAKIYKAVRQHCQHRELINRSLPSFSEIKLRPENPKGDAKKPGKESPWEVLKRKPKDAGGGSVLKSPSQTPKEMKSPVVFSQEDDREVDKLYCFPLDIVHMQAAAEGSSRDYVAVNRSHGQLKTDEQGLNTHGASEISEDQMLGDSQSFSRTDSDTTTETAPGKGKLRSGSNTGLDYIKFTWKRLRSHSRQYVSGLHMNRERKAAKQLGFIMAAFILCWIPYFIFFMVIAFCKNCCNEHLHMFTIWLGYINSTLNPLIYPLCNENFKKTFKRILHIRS
Sequence of 5-HT6 (P50406 whole entry, species assumed): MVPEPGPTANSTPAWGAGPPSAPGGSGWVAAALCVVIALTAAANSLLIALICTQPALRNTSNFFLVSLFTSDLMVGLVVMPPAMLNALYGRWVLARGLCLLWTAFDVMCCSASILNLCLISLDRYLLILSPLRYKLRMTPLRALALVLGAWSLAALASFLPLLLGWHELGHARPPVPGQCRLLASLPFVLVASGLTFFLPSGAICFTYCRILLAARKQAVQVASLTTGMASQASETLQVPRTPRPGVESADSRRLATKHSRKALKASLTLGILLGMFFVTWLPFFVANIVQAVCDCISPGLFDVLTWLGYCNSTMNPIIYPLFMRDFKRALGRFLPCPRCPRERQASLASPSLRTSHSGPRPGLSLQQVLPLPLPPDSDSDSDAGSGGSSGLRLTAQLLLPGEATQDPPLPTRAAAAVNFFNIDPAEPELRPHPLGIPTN
Sequence of 5-HT1E (P28566 whole entry, species assumed): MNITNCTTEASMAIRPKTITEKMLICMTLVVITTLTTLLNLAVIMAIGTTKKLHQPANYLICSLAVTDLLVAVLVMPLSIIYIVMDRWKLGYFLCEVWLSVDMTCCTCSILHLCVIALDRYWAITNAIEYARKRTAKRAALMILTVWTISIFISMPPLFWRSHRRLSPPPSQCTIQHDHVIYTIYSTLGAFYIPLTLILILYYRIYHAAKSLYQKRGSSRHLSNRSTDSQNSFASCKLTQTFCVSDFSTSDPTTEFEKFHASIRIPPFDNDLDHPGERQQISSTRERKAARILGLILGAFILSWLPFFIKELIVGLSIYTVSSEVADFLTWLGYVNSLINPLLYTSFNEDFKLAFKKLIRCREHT

Structure (SMILES)	Ki (5-HT2B) [µM]	Ki (MOR) [µM]	Ki (5-HT3) [µM]	Ki (Alpha2A) [µM]	Ki (5-HT1E) [µM]	Ki (Alpha1B) [µM]	Ki (D3) [µM]	Ki (5-HT6) [µM]	Ki (H1) [µM]	Ki (M2) [µM]	Ki (M3) [µM]	BBB penetrance [1]	tolerability / adverse clinical signs [1]	further results
Cc1cc(Oc2nccc3c2ccn3C)ccc1-c1c(C)c(=O)[nH]c(=O)n1C [Compound 37, 1,5-Dimethyl-6-(2-methyl-4-((1-methyl-1H-pyrrolo[3,2-c]pyridin-4-yl)oxy)phenyl)pyrimidine-2,4(1H,3H)-dione]	> 10	> 10	> 10	> 10	> 10	> 10	> 10	> 10	> 10	> 10				
Cc1cc(Oc2nccc3occc23)ccc1-c1c(C)c(=O)[nH]c(=O)n1C1CC1 [Compound 18, 1-Cyclopropyl-6-(4-(furo[3,2-c]pyridin-4-yloxy)-2-methylphenyl)-5-methylpyrimidine-2,4(1H,3H)-dione]	> 10	> 10	> 10	> 10	> 10	> 10	> 10	> 10	> 10		> 10			
Cc1cc2c(Oc3ccc(-c4c(C)c(=O)[nH]c(=O)n4C)c(C)c3)nccc2o1 [Compound 36, 1,5-Dimethyl-6-(2-methyl-4-((2-methylfuro[3,2-c]pyridin-4-yl)-oxy)phenyl)pyrimidine-2,4(1H,3H)-dione]	> 10	> 10	> 10	> 10	> 10	> 10	> 10	> 10	> 10	> 10	> 10			
Cc1cc(Oc2nccc3occc23)ccc1-c1c(C)c(=O)[nH]c(=O)n1C [Compound 10, 6-(4-(Furo[3,2-c]pyridin-4-yloxy)-2-methylphenyl)-1,5-dimethylpyrimidine-2,4(1H,3H)-dione]	> 10	> 10	> 10	> 10	> 10	> 10	> 10	> 10	> 10	> 10	> 10	good BBB penetrance	well-tolerated	bias factor for β-arrestin2 (D1R [2]): 1.8; forward locomotion at each time interval and total distance traveled vs vehicle (6-OHDA-lesioned mice): statistically significant increases; number of contralateral rotations vs vehicle (6-OHDA-lesioned mice): significant increases; β-arrestin2 recruitment EMAX (D1R [3]): 86%; EC50 (D1R [3]; read-out: β-arrestin2 recruitment EC50): 35 nM
Cc1cc(Oc2nccc3ccsc23)ccc1-c1c(C)c(=O)[nH]c(=O)n1C [Compound 40, 1,5-Dimethyl-6-(2-methyl-4-(thieno[2,3-c]pyridin-7-yloxy)-phenyl)pyrimidine-2,4(1H,3H)-dione]	> 10	> 10	> 10	> 10	> 10	> 10	> 10	> 10	> 10	> 10				
COc1ccnc(Oc2ccc(-c3c(C)c(=O)[nH]c(=O)n3C)c(C)c2)c1C(F)(F)F [Compound 35, 6-(4-((4-Methoxy-3-(trifluoromethyl)pyridin-2-yl)oxy)-2-methylphenyl)-1,5-dimethylpyrimidine-2,4(1H,3H)-dione]	> 10	> 10	> 10		> 10	> 10	> 10	> 10	> 10		> 10	good BBB penetrance	well-tolerated	time stable levels are maintained in the brain and plasma after administration [1]: at least 4 hours; peak concentration in the brain ([1]; sampled 0.5, 1.5, 4.0 h): ~100 µM; peak concentration in the plasma ([1]; sampled 0.5, 1.5, 4.0 h): ~100 µM
